According to patent publication US20250326795A1, “USE OF D-ENANTIOMERIC PEPTIDE LIGANDS OF MONOMERIC TAU FOR THE THERAPY OF VARIOUS TAUOPATHIES” (PRIAVOID GMBH, priority 2021, published 2025):
pKd: −log10 of the molar value. Where two headings read alike, the source gives them in different places. Where a SMILES comes first, the peptide text is derived from it. [ ]: non-standard residue; d: D form.

How the values were obtained:
tau = tau (Homo sapiens, UniProt P10636); test: ThT assay of heparin-induced tau aggregation (with AFM analysis); assay type: biochemical; conditions: 15 μM tau, 8 μM heparin, 20 μM ThT; for effect on tau aggregation (ThT analysis): 15 μM peptide, 37° C., PBS pH 7.4 (FIG. 1)
Sequence of tau (P10636 1-441 isoform P10636-8): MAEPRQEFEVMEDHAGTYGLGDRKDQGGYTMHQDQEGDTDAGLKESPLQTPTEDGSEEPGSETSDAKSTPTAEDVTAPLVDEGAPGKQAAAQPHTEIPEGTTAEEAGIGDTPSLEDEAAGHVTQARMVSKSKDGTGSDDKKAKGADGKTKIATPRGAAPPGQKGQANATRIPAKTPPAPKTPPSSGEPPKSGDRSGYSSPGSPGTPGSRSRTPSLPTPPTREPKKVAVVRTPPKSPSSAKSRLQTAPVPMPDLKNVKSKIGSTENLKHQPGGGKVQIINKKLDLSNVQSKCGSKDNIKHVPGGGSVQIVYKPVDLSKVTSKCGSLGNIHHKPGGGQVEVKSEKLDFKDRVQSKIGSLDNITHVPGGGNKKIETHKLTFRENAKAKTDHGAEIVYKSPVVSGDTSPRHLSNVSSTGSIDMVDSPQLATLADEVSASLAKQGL
Experimental: The effects of TF2D-1 and TF2D-5 on tau aggregation are shown. The ThT assay was performed by incubation of 15 μM tau with 8 μM heparin, 20 μM THT and 15 μM of either of the two peptides TF2D-1 or TF2D-5 at 37° C. in PBS pH 7.4. The sample without addition of the peptide is shown in red. The samples in which TF2D-1 or TF2D-5 was present are shown in green (TF2D-1) and blue (TF2D-5).
Shown are the effects of TF2D-5 on tau aggregation. The ThT assay was performed by incubation of 15 μM tau with 8 μM heparin, 20 μM ThT, 10% DMSO and different concentrations of TF2D-5 at 37° C. pH 7.0. The images next to the graph show the respective AFM measurements of each sample taken after 5 days. […] The image marked with C corresponds to the blue ThT curve without dilution, where TF2D-5 was added after 24 hours. All AFM measurements were performed by drying 1 μl on a mica, followed by two wash steps with 100 μl water and measurement on JPK Nanowizard3 with intermittent contact air and an OMCL AC160TS as cantilever.

[1] = Stability study in different simulated human body fluids; assay type: in vitro ADME; conditions: simulated gastric fluid pH 1, simulated intestinal fluid pH 6.8, human blood plasma, human liver microsomes (FIG. 6)
Experimental: Stability study of TF2D-5 and TF2D-5a in different simulated human body fluids. A) Stability of the peptides in simulated gastric fluid (SGF). The simulated gastric fluid consisted of 2 mg/ml sodium chloride, 3.2 mg/ml pepsin and 80 mM HCl; pH 1. B) Stability of TF2D-5 and TF2D-5a in simulated intestinal fluid (SIF). Simulated intestinal fluid consisted of 6.8 mg/ml potassium dihydrogen phosphate, 10 mg/ml pancreatic powder and 15.4 mM NaOH; pH 6.8. C) Stability of TF2D 5 and TF2D-5a in human blood plasma. Human K3EDTA blood plasma was obtained from BioTrend. D) Stability of TF2D-5 and TF2D-5a in human liver microsomes. Human liver microsomes consisted of 6 mg/ml protein (containing cytochrome P450 (CYP) enzymes), 75 mM sucrose, 1.3 mM NADPH, 3.3 mM D-glucose-6-phosphate, 0.2 u/ml D-glucose-6-phosphate dehydrogenase, 3.3 mM magnesium chloride and 100 mM potassium phosphate pH 7.4.

[2] = molecular target: T1, monomeric full-length tau 441 (Homo sapiens, UniProt P10636); test: SPR measurement of peptide binding to tau; conditions: for pKd: SPR T200 Biacore, peptide immobilised on CM5 chip, monomeric tau as analyte, TBS pH 7.4, 0.05% Tween 20, DTT, 1:1 model (FIG. 2b)
T1 construct: SPR measurement of TF2D-5 and TF2D-5a with full-length tau 441
T1 sequence (P10636 1-441 isoform P10636-8): as above
Experimental: SPR measurements of TF2D-5 with the analyte tau. Seven concentrations of tau were prepared for the measurement, with the highest concentration at 100 nM and the lowest concentration at 1.56 nM. The running buffer contained TBS with 0.1% Tween. The Koff was determined to be approximately 6×10-5 s-1.
The tau concentration during the measurement varied from 3.125 nM to 25 nM. […] Tau was used at concentrations from 31.25 nM to 500 nM. SPR measurements of A and B were recorded on a T200 Biacore instrument, the respective peptide was immobilised on a CM5 chip from Cytiva, while monomeric tau served as the analyte. The tests were performed using TBS pH 7.4, 0.05% Tween […] DTT as running buffer. The fit calculation was performed using the internal evaluation software of the T200 Biacore. A 1:1 model was used for both fits.

tau in full-length = molecular target: T2, tau in full-length (Homo sapiens, UniProt P10636); test: MST measurement of CF633-labelled peptides with tau in full-length; assay type: binding; conditions: read-out: KD (MST, Boltzmann fit)
T2 construct: MST measurement of TF2D-5, TF2D-5a and CP1 with tau in full-length
T2 sequence (P10636 1-441 isoform P10636-8): as above
Experimental: MST measurement of TF2D-5, TF2D-5a and CP1 with tau in full-length. A) Boltzmann fit of TF2D-5 MST measurements with tau in full-length. TF2D-5 was labelled with CF633. The concentration of TF2D-5 was 500 nM, while the concentration of tau in full-length was between 2.5 μM and 0.2 pM. The measurement was performed in 1×PBS pH 7.4 with 150 mM NaCl. […] B) Boltzmann fit of TF2D-5a MST measurements with tau in full length. TF2D-5a was labelled with CF633. The concentration of TF2D-5a was 62.5 nM, while the concentration of tau in full-length varied between 300 nM and 0.5 nM. The measurement was performed in 0.1 M sodium phosphate buffer pH 7.4 with 75 mM sodium sulphate and 0.05% Tween 20. […] C) Average of the CP1-MST measurements with tau in full length. CP1 consists of the same amino acids as TF2D-5, but with a different distribution of the amino acids. CP1 was labelled with CF633. The concentration of CP1 was 62.5 nM, while the concentration of tau in full-length varied between […] and 0.2 pM. The measurement was performed in 0.1 M sodium phosphate buffer pH 7.4 with 75 mM sodium sulphate and 0.05% Tween 20. […] D) Calculated KDs of the individual peptides to tau in full-length at a glance. All experiments were repeated four times and the average of all measurements was calculated, which in turn was used to calculate the fits (Boltzmann).

tauk18 (LM)-YFP cells = test: Inhibition of tau aggregation in cells seeded with sonified tau fibrils; assay type: cell-based; conditions: three-day treatment
Experimental: A) TF2D-5a and the D-peptide CP-1, as negative control, were tested for their ability to inhibit the tau aggregation in tauk18 (LM)-YFP cells. The scale bar corresponds to 50 μm and applies to b-d. The significance was calculated using a one-way ANOVA followed by Dunnett's test for multiple comparisons. Three asterisks represent a p-value of less than 0.001 and four asterisks a p-value of less than 0.0001.

Compound | effect on tau aggregation (ThT analysis) (tau) | effect on tau aggregation (ThT and AFM analysis) (tau; 10% DMSO, different concentrations of TF2D-5, 37° C., pH 7.0, AFM after 5 days (FIG. 3)) | stability in different body fluids [1] | pKd [2] | koff ([2]; SPR, analyte tau 1.56-100 nM, running buffer TBS with 0.1% Tween (FIG. 2a)) | pKd (tau in full-length; 500 nM labelled peptide, tau 2.5 μM to 0.2 pM, 1×PBS pH 7.4 with 150 mM NaCl (FIG. 4A)) | pKd (tau in full-length; 62.5 nM labelled peptide, tau 300 nM to 0.5 nM, 0.1 M sodium phosphate buffer pH 7.4, 75 mM sodium sulphate, 0.05% Tween 20 (FIG. 4B)) | effect on number of cells with tau aggregates (tauk18 (LM)-YFP cells; cells seeded with sonified tau fibrils (FIG. 5)) | concentration at which reduction in number of cells with tau aggregates was significant (tauk18 (LM)-YFP cells; further reduced at 25 μM and 50 μM, one-way ANOVA, Dunnett's test)
CC[C@@H](C)[C@@H](NC(=O)[C@@H](Cc1c[nH]cn1)NC(=O)CNC(=O)CNC(=O)[C@H]1CCCN1C(=O)[C@H](NC(=O)[C@@H](CCCCN)NC(=O)[C@@H](Cc1ccccc1)NC(=O)[C@@H](CC(C)C)NC(=O)[C@H](NC(=O)[C@@H](CCC(N)=O)NC(=O)[C@@H](Cc1ccc(O)cc1)NC(=O)CNC(=O)CNC(=O)[C@H](N)CC(=O)O)[C@H](C)CC)[C@H](C)CC)C(=O)N[C@H](Cc1c[nH]cn1)C(N)=O [TF2D-5, dggyqilfkipgghih] (H-[dD]GG[dY][dQ][dI][dL][dF][dK][dI][dP]GG[dH][dI][dH]-NH2) | inhibit tau aggregation | inhibits tau aggregation | very stable | 8.89 | ~6e-05 s⁻¹ | 9.51 |  |  | 
Nemylwhwqypqhlrvg (H-[dN][dE][dM][dY][dL][dW][dH][dW][dQ][dY][dP][dQ][dH][dL][dR][dV]G-NH2; SMILES CSCC[C@@H](NC(=O)[C@@H](CCC(=O)O)NC(=O)[C@H](N)CC(N)=O)C(=O)N[C@H](Cc1ccc(O)cc1)C(=O)N[C@H](CC(C)C)C(=O)N[C@H](Cc1c[nH]c2ccccc12)C(=O)N[C@H](Cc1c[nH]cn1)C(=O)N[C@H](Cc1c[nH]c2ccccc12)C(=O)N[C@H](CCC(N)=O)C(=O)N[C@H](Cc1ccc(O)cc1)C(=O)N1CCC[C@@H]1C(=O)N[C@H](CCC(N)=O)C(=O)N[C@H](Cc1c[nH]cn1)C(=O)N[C@H](CC(C)C)C(=O)N[C@H](CCCNC(=N)N)C(=O)N[C@@H](C(=O)NCC(N)=O)C(C)C) [TF2D-1] | inhibit tau aggregation |  |  |  |  |  |  |  | 
CC[C@@H](C)[C@@H](NC(=O)[C@@H](Cc1c[nH]cn1)NC(=O)CNC(=O)CNC(=O)[C@H]1CCCN1C(=O)[C@H](NC(=O)[C@@H](CCCCN)NC(=O)[C@@H](Cc1ccccc1)NC(=O)[C@@H](CC(C)C)NC(=O)[C@H](NC(=O)[C@@H](CCC(N)=O)NC(=O)[C@@H](Cc1ccc(O)cc1)NC(=O)CNC(=O)CNC(=O)[C@H](N)CC(=O)O)[C@H](C)CC)[C@H](C)CC)C(=O)N[C@H](Cc1c[nH]cn1)C(=O)N[C@H](CCCNC(=N)N)C(=O)N[C@H](CCCNC(=N)N)C(=O)N[C@H](CCCNC(=N)N)C(=O)N[C@H](CCCNC(=N)N)C(=O)N[C@H](CCCNC(=N)N)C(N)=O [TF2D-5a, dggyqilfkipgghihrrrrr] (H-[dD]GG[dY][dQ][dI][dL][dF][dK][dI][dP]GG[dH][dI][dH][dR][dR][dR][dR][dR]-NH2) |  |  | very stable | 8.21 |  |  | 7.93 | concentration-dependent reduction in the number of cells with tau aggregates | 12.5 UM
